Experiment [1] has as its system ERK1 phosphorylation of its substrate RSK in HT29 cells. Kind of experiment: pRSK MSD Assay in HT29 cells. Type of experiment: cell-based. Here is the method: The protocol below describes an assay to measure the kinase activity of ERK1 to phosphorylate its substrate, RSK, in the presence of a test compound. This experiment was conducted using a Mesoscale Discovery plate. The day before the assay, HT29 cells were split and plated at 50,000 cells/well in complete growth media. After allowing cells to adhere, the media was removed and replaced with media containing 0.1% FBS and incubated overnight. Blank MDS plates were coated with 25 μl/well RSK capture antibody and incubated at 4° C. overnight. The next day, the media was removed and replaced with 100 μl of media containing a test compound and incubated for 120 minutes at 37° C. The media was removed and replaced with 55 μl of well lysis buffer with protease and phosphatase inhibitors provided in the kit, followed by incubation at 4° C. for 30 minutes. 50 μl of lysate was transferred to a blocked MSD plate, followed by incubation at room temperature for 2 hours under constant shaking. The plate was washed 3 times with MSD wash buffer (cat#R617TX), and 25 μl/well phospho-RSK (pRSK) detection antibody was added with an appropriate Sulfo-tagged anti-species detection antibody diluted in 1% BSA in MSD wash buffer. This mixture was incubated for 1 hour at room temperature under constant shaking. The plate was washed 3 times, and 150 μl 1×MSD read buffer was added, followed by signal detection in an MSD plate reader.

A further experiment has as its target Erk1 (Homo sapiens (Human), UniProt P27361). Kind of experiment: Protein Mass Modification Assay (intact protein MALDI). The class given is binding. The gist of the method:
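Percent covalent modification comes from the intact-protein MALDI centroid mass shift, treated versus control, divided by compound MW. Before analysis, human Erk1 was exposed to compound at 10-fold excess over protein for 60 min at room temperature.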

Another experiment addresses MEK1 activated ERK1 (Homo sapiens (Human), UniProt P27361). Kind of experiment: Omnia continuous-read kinase assay for potency against MEK1 activated ERK1. Type of experiment: biochemical. As to conditions: MEK1 activated ERK1, WT, ATP at KM. The gist of the method: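 Apparent IC50 came from initial reaction slopes (RFU vs time) plotted against log inhibitor with a variable-slope fit. Reactions were started with ERK1 (4 nM final) added to 50 μM ATP, roughly at its appKM, and 10 μM Sox-conjugated ST17 peptide in 20 mM Tris pH 7.5, 5 mM MgCl2. Fluorescence was monitored every 71 seconds.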

Where [2] appears, read: Homo sapiens, HT-29, HT29 cells, read-out: ERK1 PRSK MSD HT29 EC50.
Where [3] appears, read: Homo sapiens, HT-29, read-out: ERK1 PRSK MSD HT29 EC50 (nM).

Read-outs that look alike come from different tables or passages of the source.

Sequence of Erk1 (P27361 whole entry, looked up): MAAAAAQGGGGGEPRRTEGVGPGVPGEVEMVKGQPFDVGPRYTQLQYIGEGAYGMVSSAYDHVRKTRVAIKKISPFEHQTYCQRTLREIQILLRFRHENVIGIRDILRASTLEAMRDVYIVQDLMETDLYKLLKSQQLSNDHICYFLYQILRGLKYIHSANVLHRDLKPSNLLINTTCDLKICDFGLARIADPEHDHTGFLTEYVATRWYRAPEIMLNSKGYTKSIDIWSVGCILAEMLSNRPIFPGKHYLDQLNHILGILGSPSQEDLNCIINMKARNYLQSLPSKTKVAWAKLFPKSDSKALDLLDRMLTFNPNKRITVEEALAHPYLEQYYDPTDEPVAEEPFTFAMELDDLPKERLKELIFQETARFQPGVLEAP
Sequence of MEK1 activated ERK1 (P27361 whole entry): as the sequence (P27361 whole entry, looked up) above

What is called EC50 is the concentration at which the effect is half-maximal. Turning to `C=CC(=O)Nc1ccccc1Nc1nc(N[C@@H]2CCC[C@H](C(=O)O)C2)ncc1Cl` (racemic) [Compound I-133, Rac-3-((4-((2-acrylamidophenyl)amino)-5-chloropyrimidin-2-yl)amino)-cis-cyclohexanecarboxylic acid], the EC50 in experiment [1] (setting [2]) was greater than 1000 nM. Besides, on Erk1, the “ERK1 Mass Mod (%)” value is “E (provided a mass modification of ≧70%)”.

With `C=CC(=O)Nc1ccccc1Nc1nc(N[C@H]2CC[C@H](O)CC2)ncc1C(F)(F)F` [Compound I-1, Trans-N-(2-((2-((4-hydroxycyclohexyl)amino)-5-(trifluoromethyl)pyrimidin-4-yl)amino)phenyl)acrylamide], the EC50 in experiment [1] (HT29 cells, read-out: ERK1 PRSK MSD HT29 EC50) is 101 to 500 nM. Moreover, the “ERK1 Mass Mod (%)” value on Erk1 is “G (proived a mass modification ≦30%)”.

As to `C=CC(=O)Nc1ccccc1Nc1nc(N[C@H]2CC[C@H](C(N)=O)CC2)ncc1C(F)(F)F` [Compound I-16, 4-((4-((2-acrylamidophenyl)amino)-5-(trifluoromethyl)pyrimidin-2-yl)amino) -trans-cyclohexanecarboxamide], the EC50 in experiment [1] (setting [2]) fell in the range of 501 to 999 nM. Also, the “ERK1 Mass Mod (%)” value at Erk1 is recorded as “E (provided a mass modification of ≧70%)”.

`C=CC(=O)Nc1ccccc1Nc1nc(Nc2cncc(C(N)=O)c2)ncc1C(F)(F)F` [Compound I-63, 5-((4-((2-Acrylamidophenyl)amino)-5-(trifluoromethyl)pyrimidin-2-yl)amino)nicotinamide]: the EC50 in experiment [1] (setting [2]) is 101 to 500 nM. Further, at Erk1, the “ERK1 Mass Mod (%)” value is listed as “E (provided a mass modification of ≧70%)”.

Consider `C=CC(=O)Nc1cc(C)ccc1Nc1nc(Nc2cc(C(C)=O)ccc2C)ncc1C(F)(F)F` [Compound I-84, N-(2-((2-((5-Acetyl-2-methylphenyl)amino)-5-(trifluoromethyl)pyrimidin-4-yl)amino)-5-methylphenyl)acrylamide], for which, in experiment [1] (setting [3]), the EC50 was 101 to 500 nM. The “ERK1 Mass Mod (%)” value on Erk1 is listed as “E (key: E: provided a mass modification of ≧70%; F: provided a mass modification of 31-69%; G: proived a mass modification ≦30%)”.

In the case of `C=C(C)S(=O)(=O)Nc1cc(F)ccc1Nc1nc(Nc2cc(C(N)=O)ccc2C)ncc1C(F)(F)F` [Compound I-87, 3-((4-((4-Fluoro-2-(1-methylvinylsulfonamido)phenyl)amino)-5-(trifluoromethyl)pyrimidin-2-yl)amino)-4-methylbenzamide], the concentration for a half-maximal effect (EC50) in experiment [1] (setting [2]) was in the range of 101 to 500 nM. For the same molecule, the “ERK1 Mass Mod (%)” value at Erk1 is listed as “G (proived a mass modification ≦30%)”.

Take `C=CC(=O)Nc1ccccc1Nc1nc(Nc2cc(OC)nc(N3CCN(C(C)=O)CC3)c2)ncc1C(F)(F)F` [Compound I-92]: the EC50 in experiment [1] (setting [2]) is less than 100 nM. Moreover, at Erk1, the “ERK1 Mass Mod (%)” value was “E (provided a mass modification of ≧70%)”.

`C=CC(=O)Nc1cc(C)ccc1Nc1nc(Nc2cc(OC)nc(OC)c2)ncc1C(F)(F)F` [Compound I-96]: the half-maximal effective concentration (EC50) in experiment [1] (setting [3]) is less than 100 nM. For the same molecule, the “ERK1 Mass Mod (%)” value on Erk1 is listed as “E (key: E: provided a mass modification of ≧70%; F: provided a mass modification of 31-69%; G: proived a mass modification ≦30%)”.

For `C=CC(=O)Nc1ccccc1Nc1nc(N[C@H]2CC[C@H](O)CC2)ncc1Cl` [Compound I-101], the concentration giving a half-maximal response (EC50) in experiment [1] (setting [2]) is 101 to 500 nM. For the same molecule, on Erk1, the “ERK1 Mass Mod (%)” value is recorded as “E (provided a mass modification of ≧70%)”.

As a reminder, the IC50 is the concentration at which inhibition is half-maximal. Turning to `C=CC(=O)Nc1ccccc1Nc1nc(Nc2ccnc(NC)c2)ncc1C(F)(F)F` [Compound I-321, N-(2-((2-((2-(methylamino)pyridin-4-yl)amino)-5-(trifluoromethyl)pyrimidin-4-yl)amino)phenyl)acrylamide], the IC50 on MEK1 activated ERK1 is greater than 1000 nM. Further, the “ERK1 Mass Mod (%)” value at Erk1 is recorded as “E (provided a mass modification of ≧70%)”.

As to `C=CC(=O)Nc1cc(F)ccc1Nc1nc(Nc2cc(OC)ncc2C)ncc1C(F)(F)F` [Compound I-322, N-(5-fluoro-2-((2-((2-methoxy-5-methylpyridin-4-yl)amino)-5-(trifluoromethyl)pyrimidin-4-yl)amino)phenyl)acrylamide], at MEK1 activated ERK1, the IC50 was less than 100 nM. The “ERK1 Mass Mod (%)” value on Erk1 is listed as “E (provided a mass modification of ≧70%)”.

With `C=CC(=O)Nc1cc(C)ccc1Nc1nc(Nc2cc(OC)nc(N3CC(O)C3)c2)ncc1C(F)(F)F` [Compound I-328, N-(2-((2-((2-(3-hydroxyazetidin-1-yl)-6-methoxypyridin-4-yl)amino)-5-(trifluoromethyl)pyrimidin-4-yl)amino)-5-methylphenyl)acrylamide], at MEK1 activated ERK1, the IC50 is less than 100 nM. Also, at Erk1, the “ERK1 Mass Mod (%)” value is reported as “E (provided a mass modification of ≧70%)”.

Take `C=CC(=O)Nc1cc(C)ccc1Nc1nc(Nc2cc(OC)nc(N3CCC3)c2)ncc1C(F)(F)F` [Compound I-329, N-(2-((2-((2-(azetidin-1-yl)-6-methoxypyridin-4-yl)amino)-5-(trifluoromethyl)pyrimidin-4-yl)amino)-5-methylphenyl)acrylamide]: the IC50 on MEK1 activated ERK1 was greater than 1000 nM. Besides, the “ERK1 Mass Mod (%)” value on Erk1 is given as “E (provided a mass modification of ≧70%)”.

As for `C=CC(=O)Nc1cc(C)ccc1Nc1nc(Nc2cc(OC)nc(N3CCC(O)CC3)c2)ncc1C(F)(F)F` [Compound I-332, N-(2-((2-((2-(4-hydroxypiperidin-1-yl)-6-methoxypyridin-4-yl)amino)-5-(trifluoromethyl)pyrimidin-4-yl)amino)-5-methylphenyl)acrylamide], the IC50 at MEK1 activated ERK1 was greater than 1000 nM. Moreover, the “ERK1 Mass Mod (%)” value on Erk1 is on record as “E (provided a mass modification of ≧70%)”.

With `C=CC(=O)Nc1cc(OC)ccc1Nc1nc(Nc2cc(OC)nc(N3CCN(C)CC3)c2)ncc1C(F)(F)F` [Compound I-334, N-(5-methoxy-2-((2-((2-methoxy-6-(4-methylpiperazin-1-yl)pyridin-4-yl)amino)-5-(trifluoromethyl)pyrimidin-4-yl)amino)phenyl)acrylamide], at MEK1 activated ERK1, the IC50 was less than 100 nM. In addition, at Erk1, the “ERK1 Mass Mod (%)” value is listed as “E (provided a mass modification of ≧70%)”.

As to `C=CC(=O)Nc1cc(C)ccc1Nc1nc(Nc2cnnc(OC)c2)ncc1C(F)(F)F` [Compound I-335, N-(2-((2-((6-methoxypyridazin-4-yl)amino)-5-(trifluoromethyl)pyrimidin-4-yl)amino)-5-methylphenyl)acrylamide], the IC50 on MEK1 activated ERK1 is greater than 1000 nM. For the same molecule, at Erk1, the “ERK1 Mass Mod (%)” value was “E (provided a mass modification of ≧70%)”.

Regarding `C=CC(=O)Nc1cc(C)ccc1Nc1nc(Nc2nc(OC)ccc2Cl)ncc1C(F)(F)F` [Compound I-360, N-(2-((2-((3-chloro-6-methoxypyridin-2-yl)amino)-5-(trifluoromethyl)pyrimidin-4-yl)amino)-5-methylphenyl)acrylamide], the 50% inhibitory concentration (IC50) on MEK1 activated ERK1 is greater than 1000 nM. In addition, the “ERK1 Mass Mod (%)” value at Erk1 was “E (provided a mass modification of ≧70%)”.

Consider `C=CC(=O)Nc1cc(C)ccc1Nc1nc(Nc2cc(OC)cnc2Cl)ncc1C(F)(F)F` [Compound I-361, N-(2-((2-((2-chloro-5-methoxypyridin-3-yl)amino)-5-(trifluoromethyl)pyrimidin-4-yl)amino)-5-methylphenyl)acrylamide], for which the IC50 on MEK1 activated ERK1 is less than 100 nM. In addition, the “ERK1 Mass Mod (%)” value on Erk1 is “E (provided a mass modification of ≧70%)”.

Take `C#CCOc1cc(C)c(Nc2ncc(C(F)(F)F)c(Nc3ccc(C)cc3NC(=O)C=C)n2)cc1C(N)=O` [Compound I-362, 5-((4-((2-acrylamido-4-methylphenyl)amino)-5-(trifluoromethyl)pyrimidin-2-yl)amino)-4-methyl-2-(prop-2-yn-1-yloxy)benzamide]: the IC50 at MEK1 activated ERK1 was greater than 1000 nM. The “ERK1 Mass Mod (%)” value on Erk1 is given as “E (provided a mass modification of ≧70%)”.

Consider `C=CC(=O)Nc1cc(C)ccc1Nc1nc(Nc2nc(O)ncc2Cl)ncc1C(F)(F)F` [Compound I-363, N-(2-((2-((5-chloro-2-hydroxypyrimidin-4-yl)amino)-5-(trifluoromethyl)pyrimidin-4-yl)amino)-5-methylphenyl)acrylamide], for which the half-inhibitory concentration (IC50) at MEK1 activated ERK1 is greater than 1000 nM. Further, on Erk1, the “ERK1 Mass Mod (%)” value was “E (provided a mass modification of ≧70%)”.

As for `C=CC(=O)Nc1cc(C)ccc1Nc1nc(Nc2nc(O)ncc2C)ncc1C(F)(F)F` [Compound I-364, N-(2-((2-((2-hydroxy-5-methylpyrimidin-4-yl)amino)-5-(trifluoromethyl)pyrimidin-4-yl)amino)-5-methylphenyl)acrylamide], the IC50 on MEK1 activated ERK1 is less than 100 nM. Also, at Erk1, the “ERK1 Mass Mod (%)” value is listed as “E (provided a mass modification of ≧70%)”.

Regarding `C=CC(=O)Nc1cc(C)ccc1Nc1nc(Nc2cc(O)ncc2C)ncc1C(F)(F)F` [Compound I-365, N-(2-((2-((2-hydroxy-5-methylpyridin-4-yl)amino)-5-(trifluoromethyl)pyrimidin-4-yl)amino)-5-methylphenyl)acrylamide], the IC50 at MEK1 activated ERK1 was greater than 1000 nM. Moreover, at Erk1, the “ERK1 Mass Mod (%)” value is on record as “E (provided a mass modification of ≧70%)”.

These data come from patent US9796700B2 (Celgene CAR LLC, priority 2013, dated 2017).
